Measured values published in patent publication US20250186408A1, “TREATMENT OF PHARMACORESISTANT EPILEPSY” (Katholieke Universiteit Leuven, priority 2021, published 2025).
Where two headings read alike, the source gives them in different places.

How the values were obtained:
[1] = target: T1, PDE4D2 (Homo sapiens, UniProt Q08499); experiment: Enzymatic PDE4D2 Inhibitor; type: biochemical; conditions: for IC50: read-out: RC50, result type IC50; for Emax: read-out: Max response
T1 construct: purchased Signal Chem
T1 sequence (Q08499 303-809 limits assumed): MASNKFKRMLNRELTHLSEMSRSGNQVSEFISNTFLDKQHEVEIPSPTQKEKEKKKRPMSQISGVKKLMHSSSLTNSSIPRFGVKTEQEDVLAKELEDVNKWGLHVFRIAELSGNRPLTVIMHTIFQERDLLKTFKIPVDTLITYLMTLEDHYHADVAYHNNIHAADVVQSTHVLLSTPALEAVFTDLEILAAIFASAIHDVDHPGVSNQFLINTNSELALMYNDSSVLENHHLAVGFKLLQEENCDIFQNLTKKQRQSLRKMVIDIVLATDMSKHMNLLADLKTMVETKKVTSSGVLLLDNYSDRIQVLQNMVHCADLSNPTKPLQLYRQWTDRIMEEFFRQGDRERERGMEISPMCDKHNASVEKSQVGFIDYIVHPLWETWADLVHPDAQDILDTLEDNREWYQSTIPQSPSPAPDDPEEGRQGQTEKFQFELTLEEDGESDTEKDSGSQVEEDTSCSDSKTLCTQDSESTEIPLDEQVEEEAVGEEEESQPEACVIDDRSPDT
Protocol: Enzyme preparations were sourced from various vendors-AChE (R&D Systems), COX1 and COX2 (BPS Bioscience), MAOA (Sigma), PDE3A and PDE4D2 (Signal Chem). AChE: enzyme and test compound were pre-incubated for 15 min at RT before substrate addition. Acetylthiocholine and DTNB were added and incubated at RT for 30 min. Signal was detected by measuring absorbance at 405 nm. COX1 and COX2: enzyme stocks were diluted in assay buffer (40 mM Tris-HCl, 1×PBS, 0.5 mM Phenol, 0.01% Tween 20 and 10 nM Hematin) and allowed to equilibrate with compounds at RT for 30 min (binding incubation). Arachidonic acid (1.7 μM) and Ampliflu Red (2.5 μM) were prepared and dispended into a reaction plate. Plates were read immediately on a fluorimeter with the emission detection at 590 nm and excitation wavelength 544 nm. MAOA: enzyme and test compound were pre-incubated for 15 min at 37° C. before substrate addition. The reaction was initiated by addition of kynuramine and incubated at 37° C. for 30 min. The reaction was terminated by addition of NaOH. The amount of 4-hydroquinoline formed was determined through spectrofluorometric readout with the emission detection at 380 nm and excitation wavelength 310 nm. PDE3A and PDE4D2: enzyme and test compound were pre-incubated for 15 min at RT before substrate addition. cAMP substrate (at a concentration equal to EC80) was added and incubated at RT for 30 min. Enzyme reaction was terminated by addition of 9 mM IBMX. Signal was detected using the HitHunter® cAMP detection kit. Microplates were transferred to a PerkinElmer Envision™ instrument and read out as described for each assay. […] For enzyme activity assays, percentage inhibition was calculated using the following equation: […]

[2] = target: OPRD1 (Homo sapiens, UniProt P41143); experiment: cAMP OPRD1 Antagonist; conditions: for Emax: read-out: Max response
OPRD1, sequence (P41143 whole entry): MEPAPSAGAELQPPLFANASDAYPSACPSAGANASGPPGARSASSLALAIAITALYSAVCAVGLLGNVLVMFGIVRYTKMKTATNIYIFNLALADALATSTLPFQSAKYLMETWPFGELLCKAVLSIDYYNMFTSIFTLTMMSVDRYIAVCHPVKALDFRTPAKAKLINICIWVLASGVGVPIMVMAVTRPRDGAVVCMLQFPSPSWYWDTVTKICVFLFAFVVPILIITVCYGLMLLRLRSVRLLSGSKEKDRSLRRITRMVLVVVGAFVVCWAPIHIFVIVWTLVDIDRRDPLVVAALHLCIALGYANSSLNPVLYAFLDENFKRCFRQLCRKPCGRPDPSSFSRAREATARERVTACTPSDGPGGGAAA
Protocol: In vitro pharmacological profiling of compounds was done against 78 functional assays for 47 common off-targets (30) by Eurofins DiscoverX Corporation (Fremont, CA, USA) using their SAFETYscan E/IC50 ELECT service (Cat Ref 87-1003DR, Safety47 Panel Dose Response). […] Compounds were tested in a range of 10 concentrations, following a 3-fold serial dilution, starting from 10 μM.
cAMP Hunter cell lines were expanded from freezer stocks. Prior to testing, cells were seeded in a total volume of 20 μL into white walled 384-well microplates and incubated at 37° C. cAMP modulation was determined using the DiscoverX HitHunter cAMP XS+ assay. For Gs agonist determination, cells were incubated with sample to induce response. For Gi agonist determination, cells were incubated with sample in the presence of EC80 forskolin to induce response. For both conditions, media was aspirated from cells and replaced with 15 μL 2:1 HBSS/10 mM HEPES:cAMP XS+ Ab reagent. Intermediate dilution of sample stocks was performed to generate 4× sample in assay buffer (containing 4×EC80 forskolin in the case of antagonist determination). 5 μL of 4× sample was added to cells and incubated at 37° C. or room temperature (RT) for 30 or 60 min. Final assay vehicle concentration was 1%. For antagonist determination, cells were pre-incubated with sample followed by agonist challenge at the EC80 concentration. Media was aspirated from cells and replaced with 10 μL 1:1 HBSS/HEPES:cAMP XS+ Ab reagent. 5 μL of 4× compound was added to the cells and incubated at 37° C. or RT for 30 min. 5 μL of 4×EC80 agonist was added to the cells and incubated at 37° C. or RT for 30 or 60 min. For Gi coupled GPCRs, EC80 forskolin was included. […] Microplates were read following signal generation with a PerkinElmer Envision™ instrument for chemiluminescent signal detection. Compound activity was analyzed using CBIS data analysis suite (ChemInnovation, CA).

[3] = target: T2, AR (Homo sapiens, UniProt P10275); experiment: NHR Nuclear Translocation AR Agonist; type: cell-based
T2 construct: enzyme fragment for PathHunter enzyme fragment complementation (EFC)
T2 sequence (P10275 1-920): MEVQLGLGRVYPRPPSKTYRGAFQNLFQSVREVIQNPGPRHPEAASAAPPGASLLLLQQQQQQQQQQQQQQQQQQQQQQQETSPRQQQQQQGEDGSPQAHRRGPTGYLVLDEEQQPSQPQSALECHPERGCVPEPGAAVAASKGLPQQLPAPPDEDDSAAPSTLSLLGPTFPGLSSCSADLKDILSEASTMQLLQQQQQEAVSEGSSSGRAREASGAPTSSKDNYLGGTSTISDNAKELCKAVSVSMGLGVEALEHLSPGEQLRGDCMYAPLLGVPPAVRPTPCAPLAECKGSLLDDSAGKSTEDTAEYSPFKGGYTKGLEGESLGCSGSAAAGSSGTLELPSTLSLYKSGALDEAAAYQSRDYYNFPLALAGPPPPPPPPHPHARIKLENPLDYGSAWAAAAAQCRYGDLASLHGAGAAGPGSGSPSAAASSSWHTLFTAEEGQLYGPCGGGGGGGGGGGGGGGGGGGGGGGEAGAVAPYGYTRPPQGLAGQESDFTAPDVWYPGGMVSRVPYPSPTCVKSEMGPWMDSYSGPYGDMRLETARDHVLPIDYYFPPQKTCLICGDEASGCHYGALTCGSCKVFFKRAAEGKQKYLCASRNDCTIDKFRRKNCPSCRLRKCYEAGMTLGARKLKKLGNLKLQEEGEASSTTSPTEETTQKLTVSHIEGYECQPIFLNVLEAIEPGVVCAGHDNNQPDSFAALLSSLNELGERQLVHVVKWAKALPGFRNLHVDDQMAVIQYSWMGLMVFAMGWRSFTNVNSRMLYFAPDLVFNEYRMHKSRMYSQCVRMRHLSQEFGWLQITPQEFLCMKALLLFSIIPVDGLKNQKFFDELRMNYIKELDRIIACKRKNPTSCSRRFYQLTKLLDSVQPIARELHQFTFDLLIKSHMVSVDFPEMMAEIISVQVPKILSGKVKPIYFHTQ
Protocol: (§1) In vitro pharmacological profiling of compounds was done against 78 functional assays for 47 common off-targets (30) by Eurofins DiscoverX Corporation (Fremont, CA, USA) using their SAFETYscan E/IC50 ELECT service (Cat Ref 87-1003DR, Safety47 Panel Dose Response). The following assays were performed: (1) GPCR cAMP modulation, (2) calcium mobilization, (3) nuclear hormone receptor assays, (4) KINOMEscan binding assays, (5) ion channel assays, (6) transporter assays and (7) enzymatic assays. Compounds were tested in a range of 10 concentrations, following a 3-fold serial dilution, starting from 10 μM. The assays were performed utilizing the PathHunter enzyme fragment complementation (EFC) technology, FLIPR®-based cellular screening assays, and KINOMEscan kinase binding assays.
(§2) Prior to testing, PathHunter NHR cell lines were expanded from freezer stocks and cells were seeded in a total volume of 20 μL into white walled 384-well microplates and incubated at 37° C. […] Microplates were read following signal generation with a PerkinElmer Envision™ instrument for chemiluminescent signal detection. Compound activity was analysed using CBIS data analysis suite (ChemInnovation, CA). For agonist mode assays, percentage activity was calculated using the following equation:

[4] = target: T2, AR; experiment: NHR Nuclear Translocation AR Antagonist; type: cell-based
Protocol: as §1, §2

[5] = target: T3, GR (Homo sapiens, UniProt P04150); experiment: NHR Protein Interaction GR Agonist; type: cell-based
T3 construct: enzyme fragment for PathHunter enzyme fragment complementation (EFC)
T3 sequence (P04150 1-777): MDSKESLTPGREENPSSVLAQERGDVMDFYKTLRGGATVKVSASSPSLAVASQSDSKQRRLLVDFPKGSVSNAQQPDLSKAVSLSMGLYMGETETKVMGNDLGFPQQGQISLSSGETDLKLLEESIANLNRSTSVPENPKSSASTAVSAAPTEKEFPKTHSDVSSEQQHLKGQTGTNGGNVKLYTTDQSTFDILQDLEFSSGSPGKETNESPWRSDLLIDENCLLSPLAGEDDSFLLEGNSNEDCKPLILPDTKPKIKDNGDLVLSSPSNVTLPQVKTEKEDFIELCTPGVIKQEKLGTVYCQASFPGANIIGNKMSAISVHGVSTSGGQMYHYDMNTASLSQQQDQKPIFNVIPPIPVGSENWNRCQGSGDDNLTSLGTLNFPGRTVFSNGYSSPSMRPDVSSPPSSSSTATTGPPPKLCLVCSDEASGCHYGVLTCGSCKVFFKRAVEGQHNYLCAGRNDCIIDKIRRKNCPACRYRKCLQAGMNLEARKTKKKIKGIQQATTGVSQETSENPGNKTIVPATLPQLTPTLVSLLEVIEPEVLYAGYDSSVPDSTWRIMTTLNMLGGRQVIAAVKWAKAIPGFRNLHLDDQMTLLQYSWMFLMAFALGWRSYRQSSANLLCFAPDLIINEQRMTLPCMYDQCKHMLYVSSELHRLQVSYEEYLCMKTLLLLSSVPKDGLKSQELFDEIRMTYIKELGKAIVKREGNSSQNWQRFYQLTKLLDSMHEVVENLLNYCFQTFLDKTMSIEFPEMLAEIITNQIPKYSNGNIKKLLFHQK
Protocol: as §1, §2

[6] = target: T3, GR; experiment: NHR Protein Interaction GR Antagonist; type: cell-based
Protocol: as §1, §2

With `CC(C)(C)c1ccc(C#CC(O)c2ccccc2)cc1` (racemic) [Compound 3.3, rac-3-(4-(tert-butyl)phenyl)-1-phenylprop-2-yn-1-ol] the IC50 ([1]; Enzymatic PDE4D2 Inhibitor) was over 10 µM, the Emax [1] was 0% and the IC50 [2] was over 10 µM. For the same compound, the Emax [2] was 5.9%.
With `Clc1cccc(C#Cc2n[nH]c3ncccc23)c1` [Compound 10.1, 3-((3-chlorophenyl)ethynyl)-1H-pyrazolo[3,4-b]pyridine] the EC50 [3] was over 10 µM, the Emax ([3]; NHR Nuclear Translocation AR Agonist, read-out: Max response) was 0% and the IC50 [4] was over 10 µM. The Emax ([4]; NHR Nuclear Translocation AR Antagonist, read-out: Max response) was 4.6%, the Emax ([5]; read-out: Max response) was 0% and the EC50 ([5]; read-out: RC50, result type EC50) was over 10 µM. The Emax ([6]; read-out: Max response) was 2.6%, the IC50 ([6]; read-out: RC50, result type IC50) was over 10 µM and the Emax ([1]; Enzymatic PDE4D2 Inhibitor) was 2.7%. For the same compound, the IC50 ([1]; Enzymatic PDE4D2 Inhibitor) was over 10 µM, the IC50 [2] was over 10 µM and the Emax [2] was 0%.
